Legend:
[1] = tested on: SKBR3 (PI3Kα-Wild Type) cell line; experiment: HTRF phospho-AKT(S473) cell assay in SKBR3 cells; assay type: cell-based, human
How it was run: (§1)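 Cells plated overnight (T47D in RPMI/10% FBS/0.2 units/mL insulin; SKBR3 in McCoy's 5A/10% FBS), then given 12-point 1:3 compound series (top 5 μM T47D, 10 μM SKBR3; ≤0.5% DMSO) for 2 h at 37° C. SKBR3 stimulated with 70 ng/ml PDGF-BB for final 15 min. Lysate pAKT(S473) by HTRF; IC50 calculated.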

[2] = tested on: T47D (PI3Kα-H1047R) cell line; experiment: HTRF phospho-AKT(S473) cell assay in T47D cells; assay type: cell-based, human
How it was run: as §1

[3] = Homo sapiens, SK-BR-3; HTRF phospho-AKT(S473), SKBR3 (PI3Kα-Wild Type) cells, 2 hours compound incubation, PDGF-BB stimulated
[4] = Homo sapiens; HTRF phospho-AKT(S473), T47D (PI3Kα-H1047R) cells, 2 hours compound incubation
[5] = Homo sapiens, SK-BR-3; SKBR3 (PI3Kα-Wild Type) cells, HTRF phospho-AKT(S473), 2 hours compound incubation, PDGF-BB stimulated
[6] = Homo sapiens; T47D (PI3Kα-H1047R) cells, HTRF phospho-AKT(S473), 2 hours compound incubation

| IC50 [1, 3] [nM] | IC50 [2, 4] [nM] | IC50 [1, 5] [nM] | IC50 [2, 6] [nM] | SMILES |
| --- | --- | --- | --- | --- |
| 1000 to 5000 | < 250 | – | – | Cc1cc([C@@H](C)Nc2ccc(Cl)nc2C(=O)NS(C)(=O)=O)c2nc(N3CCC(c4cnc(C)nc4)CC3)n(C3CC3)c(=O)c2c1 [Compound 607, (R)-6-chloro-3-((1-(3-cyclopropyl-6-methyl-2-(4-(2-methylpyrimidin-5-yl)piperidin-1-yl)-4-oxo-3,4-dihydroquinazolin-8-yl)ethyl)amino)-N-(methylsulfonyl) picolinamide] |
| 1000 to 5000 | < 250 | – | – | Cc1cc([C@@H](C)Nc2ccc(Cl)nc2C(=O)NS(C)(=O)=O)c2nc(N3CCN(c4ncc(C#N)cn4)CC3)n(C)c(=O)c2c1 [Compound 531, (R)-6-chloro-3-((1-(2-(4-(5-cyanopyrimidin-2-yl)piperazin-1-yl)-3,6-dimethyl-4-oxo-3,4-dihydroquinazolin-8-yl)ethyl)amino)-N-(methylsulfonyl) picolinamide] |
| ≥ 5000 | 250 to 500 | – | – | COc1cnc([C@H]2[C@@H]3CN(c4nc5c([C@@H](C)Nc6ccc(Cl)nc6C(=O)NS(C)(=O)=O)cc(C)cc5c(=O)n4C)C[C@@H]32)cn1 [Compound 641, 6-chloro-3-(((R)-1-(2-((1R,5S,6R)-6-(5-methoxypyrazin-2-yl)-3-azabicyclo[3.1.0]hexan-3-yl)-3,6-dimethyl-4-oxo-3,4-dihydroquinazolin-8-yl)ethyl)amino)-N-(methylsulfonyl) picolinamide] |
| 1000 to 5000 | < 250 | – | – | Cc1cc([C@@H](C)Nc2ccc(Cl)nc2C(=O)NS(C)(=O)=O)c2nc(-c3cc(F)c4nn(C)cc4c3)n(C)c(=O)c2c1 [Compound 788, (R)-6-chloro-3-((1-(2-(7-fluoro-2-methyl-2H-indazol-5-yl)-3,6-dimethyl-4-oxo-3,4-dihydroquinazolin-8-yl)ethyl)amino)-N-(methylsulfonyl) picolinamide] |
| ≥ 5000 | 250 to 500 | – | – | Cc1cc([C@@H](C)Nc2ccc(Cl)nc2C(=O)NS(C)(=O)=O)c2nc(N3C[C@H]4C[C@@H]3CN4c3ncc(C#N)cc3F)n(C)c(=O)c2c1 [Compound 767, 6-chloro-3-(((R)-1-(2-((1R,4R)-5-(5-cyano-3-fluoropyridin-2-yl)-2,5-diazabicyclo [2.2.1]heptan-2-yl)-3,6-dimethyl-4-oxo-3,4-dihydroquinazolin-8-yl)ethyl)amino)-N-(methylsulfonyl) picolinamide] |
| – | – | 1000 to 5000 | < 250 | Cc1cc([C@@H](C)Nc2ccc(Cl)nc2C(=O)NS(C)(=O)=O)c2nc(N3Cc4cn(C5(C(F)(F)F)CC5)nc4C3)n(C)c(=O)c2c1 [Compound 185, (R)-6-chloro-3-((1-(3,6-dimethyl-4-oxo-2-(2-(1-(trifluoromethyl)cyclopropyl)-2,6-dihydropyrrolo[3,4-c]pyrazol-5(4H)-yl)-3,4-dihydroquinazolin-8-yl)ethyl)amino)-N-(methylsulfonyl) picolinamide] |
| – | – | 1000 to 5000 | < 250 | Cc1cc([C@@H](C)Nc2ccc(Cl)nc2C(=O)NS(C)(=O)=O)c2nc(N3CCC[C@H](c4cnn(C)c4)C3)n(C)c(=O)c2c1 (relative stereo) [Compound 194, 6-chloro-3-(((R)-1-(3,6-dimethyl-2-((R*)-3-(1-methyl-1H-pyrazol-4-yl)piperidin-1-yl)-4-oxo-3,4-dihydroquinazolin-8-yl)ethyl)amino)-N-(methylsulfonyl) picolinamide] |
| ≥ 5000 | 500 to 1000 | – | – | Cc1cc([C@@H](C)Nc2ccc(Cl)nc2C(=O)NS(C)(=O)=O)c2nc([C@H]3[C@@H]4CN(c5cnc(C)c(F)c5)C[C@@H]43)n(C)c(=O)c2c1 [Compound 828, 6-chloro-3-(((R)-1-(2-((1R,5S,6r)-3-(5-fluoro-6-methylpyridin-3-yl)-3-azabicyclo[3.1.0]hexan-6-yl)-3,6-dimethyl-4-oxo-3,4-dihydroquinazolin-8-yl)ethyl)amino)-N-(methylsulfonyl) picolinamide] |
| 1000 to 5000 | < 250 | – | – | Cc1cc([C@@H](C)Nc2ccc(Cl)nc2C(=O)NS(C)(=O)=O)c2nc(N3C[C@@H]4[C@H](C3)[C@H]4c3n[nH]c(C)c3F)n(C)c(=O)c2c1 [Compound 594, 6-chloro-3-(((R)-1-(2-((1R,5S,6R)-6-(4-fluoro-5-methyl-1H-pyrazol-3-yl)-3-azabicyclo[3.1.0]hexan-3-yl)-3,6-dimethyl-4-oxo-3,4-dihydroquinazolin-8-yl)ethyl)amino)-N-(methylsulfonyl) picolinamide] |
| 1000 to 5000 | < 250 | – | – | Cc1cc([C@@H](C)Nc2ccc(Cl)nc2C(=O)NS(C)(=O)=O)c2nc(N3CC[C@@H](Oc4ncc(F)cn4)C3)n(C)c(=O)c2c1 [Compound 538, 6-chloro-3-(((R)-1-(2-((R)-3-((5-fluoropyrimidin-2-yl)oxy)pyrrolidin-1-yl)-3,6-dimethyl-4-oxo-3,4-dihydroquinazolin-8-yl)ethyl)amino)-N-(methylsulfonyl) picolinamide] |
| – | – | 1000 to 5000 | < 250 | Cc1cc([C@@H](C)Nc2ccc(Cl)nc2C(=O)NS(C)(=O)=O)c2nc(N3C[C@@H]4[C@H](C3)[C@H]4c3cnn(C)n3)n(C)c(=O)c2c1 [Compound 409, 6-chloro-3-(((R)-1-(3,6-dimethyl-2-((1R,5S,6R)-6-(2-methyl-2H-1,2,3-triazol-4-yl)-3-azabicyclo[3.1.0]hexan-3-yl)-4-oxo-3,4-dihydroquinazolin-8-yl)ethyl)amino)-N-(methylsulfonyl) picolinamide] |
| ≥ 5000 | 250 to 500 | – | – | Cc1cc([C@@H](C)Nc2ccc(Cl)nc2C(=O)NS(C)(=O)=O)c2nc(N3C[C@@H]4[C@H](C3)[C@H]4c3cc(C)n(C4CC4)n3)n(C)c(=O)c2c1 [Compound 567, 6-chloro-3-(((R)-1-(2-((1R,5S,6R)-6-(1-cyclopropyl-5-methyl-1H-pyrazol-3-yl)-3-azabicyclo[3.1.0]hexan-3-yl)-3,6-dimethyl-4-oxo-3,4-dihydroquinazolin-8-yl)ethyl)amino)-N-(methylsulfonyl) picolinamide] |
| ≥ 5000 | 250 to 500 | – | – | COc1cc([C@H]2[C@@H]3CN(c4nc5c([C@@H](C)Nc6ccc(Cl)nc6C(=O)NS(C)(=O)=O)cc(C)cc5c(=O)n4C)C[C@@H]32)c(F)cn1 [Compound 479, 6-chloro-3-(((R)-1-(2-((1R,5S,6S)-6-(5-fluoro-2-methoxypyridin-4-yl)-3-azabicyclo[3.1.0]hexan-3-yl)-3,6-dimethyl-4-oxo-3,4-dihydroquinazolin-8-yl)ethyl)amino)-N-(methylsulfonyl) picolinamide] |
| – | – | ≥ 5000 | 250 to 500 | CO[C@H]1C[C@@H](S(=O)(=O)NC(=O)c2nc(Cl)ccc2N[C@H](C)c2cc(C)cc3c(=O)n(C)c(N4Cc5ccc(F)cc5C4)nc23)C1 [Compound 378, 6-chloro-3-(((R)-1-(2-(5-fluoroisoindolin-2-yl)-3,6-dimethyl-4-oxo-3,4-dihydroquinazolin-8-yl)ethyl)amino)-N-(((1s,3S)-3-methoxycyclobutyl)sulfonyl)picolinamide] |
| 1000 to 5000 | < 250 | – | – | Cc1cc([C@@H](C)Nc2ccc(Cl)nc2C(=O)NS(C)(=O)=O)c2nc(N3C[C@@H]4[C@H](C3)[C@H]4c3nnn(C)c3C)n(C)c(=O)c2c1 [Compound 498, 6-chloro-3-(((R)-1-(2-((1R,5S,6R)-6-(1,5-dimethyl-1H-1,2,3-triazol-4-yl)-3-azabicyclo[3.1.0]hexan-3-yl)-3,6-dimethyl-4-oxo-3,4-dihydroquinazolin-8-yl)ethyl)amino)-N-(methylsulfonyl) picolinamide] |
| 1000 to 5000 | < 250 | – | – | CC(=O)N1CCC(c2ccc(-c3nc4c([C@@H](C)Nc5ccc(Cl)nc5C(=O)NS(C)(=O)=O)cc(C)cc4c(=O)n3C)c(F)c2)CC1 [Compound 780, (R)-3-((1-(2-(4-(1-acetylpiperidin-4-yl)-2-fluorophenyl)-3,6-dimethyl-4-oxo-3,4-dihydroquinazolin-8-yl)ethyl)amino)-6-chloro-N-(methylsulfonyl) picolinamide] |
| – | – | 1000 to 5000 | < 250 | Cc1cc([C@@H](C)Nc2ccc(Cl)nc2C(=O)NS(C)(=O)=O)c2nc(N3CCC(c4c(C)cnn4C)CC3)n(C)c(=O)c2c1 [Compound 427, (R)-6-chloro-3-((1-(2-(4-(1,4-dimethyl-1H-pyrazol-5-yl)piperidin-1-yl)-3,6-dimethyl-4-oxo-3,4-dihydroquinazolin-8-yl)ethyl)amino)-N-(methylsulfonyl) picolinamide] |
| 1000 to 5000 | < 250 | – | – | Cc1cc([C@@H](C)Nc2ccc(Cl)nc2C(=O)NS(C)(=O)=O)c2nc(N3CCC(c4ncc(C)c(C)n4)CC3)n(C)c(=O)c2c1 [Compound 544, (R)-6-chloro-3-((1-(2-(4-(4,5-dimethylpyrimidin-2-yl)piperidin-1-yl)-3,6-dimethyl-4-oxo-3,4-dihydroquinazolin-8-yl)ethyl)amino)-N-(methylsulfonyl) picolinamide] |
| ≥ 5000 | 250 to 500 | – | – | Cc1cc([C@@H](C)Nc2ccc(Cl)nc2C(=O)NS(C)(=O)=O)c2nc(N3Cc4cn(-c5ccccn5)nc4C3)n(C)c(=O)c2c1 [Compound 688, (R)-6-chloro-3-((1-(3,6-dimethyl-4-oxo-2-(2-(pyridin-2-yl)-2,6-dihydropyrrolo[3,4-c]pyrazol-5(4H)-yl)-3,4-dihydroquinazolin-8-yl)ethyl)amino)-N-(methylsulfonyl) picolinamide] |
| ≥ 5000 | 250 to 500 | – | – | Cc1cc([C@@H](C)Nc2ccc(Cl)nc2C(=O)NS(C)(=O)=O)c2nc(N3C[C@@H]4[C@H](C3)[C@H]4c3cc4ccccn4n3)n(C)c(=O)c2c1 [Compound 473] |
